Laboratory results as given in patent publication US11510980B2, “Brartemicin analogues” (VICTORIA LINK LTD, priority 2017, dated 2022).
“Also recorded” adds a separate entry of the source.

Experiments:
C57BL/6 mice = assay: Delayed-type hypersensitivity immunisation with OVA in oil-in-water emulsion; type: in vivo; conditions: for Th1 immune response / adjuvant activity in vivo: oil-in-water emulsion
Procedure: Delayed-type hypersensitivity: Mice were sensitised by subcutaneous injection with oil-in-water emulsions (mineral oil/Tween-80/PBS, 9:1:90, v/v/v) containing OVA only (200 μg), OVA+TDB (OVA=200 μg, TDB=0.3 μmol), OVA+9a (OVA=200 μg, 9a=0.3 μmol) or no OVA. After seven days, the mice were challenged with OVA (100 μg/footpad) and after a further seven days, the mice were sacrificed and their spleens harvested. For in vitro restimulation, splenocytes were restimulated with OVA and analysed for spenocyte number (measured at 450 nm after 3 hours, Cell Count Reagent SF, Nacalai Tesque Inc.), IFN-γ production, and IL-17 production. Footpad swelling was measured using a venier caliper pre-challenge, 24 hours post-challenge, and 48 hours post-challenge. Sera were collected from each mouse on days 0, 7, and 14 and analysed for OVA-specific antibody titers by ELISA using HRP coupled goat anti-mouse IgG (GE Health-care), IgG1, IgG2b, IgG2c, and IgG3 (SouthernBiotec). EC50 were defined by plotting the absorbance at 450 nm against log of serum concentration. Antibody titration curves were plotted using GraphPad Prism7 (GraphPad Software).
Compound 9a was then evaluated in vivo to confirm its capacity to induce a Th1 antigen-specific response using a delayed-type hypersensitivity immunisation protocol. To this end, four groups of C57BL/6 mice were immunised by subcutaneous injection with oil-in-water emulsions containing either OVA only, OVA+C18dMeBrar (9a), OVA+TDB, or no OVA. After seven days the mice were challenged with OVA (100 μg per footpad) and after a further seven days, the splenocytes were isolated and restimulated with OVA at three concentrations (10, 30, or 100 μg/mL). The immune response was measured by determining footpad swelling, production of IFN-γ and IL-17 (FIG. 7b), T cell proliferation (FIG. 4a), and antibody titres (FIG. 4c). […] Accordingly, the ability of C18dMeBrar (9a) to lead to an enhanced Th1 immune response was even more striking. This overall immune profile was also reflected in the antibody production by immunised mice. […] A high IgG2c:IgG1 ratio is commonly associated with Th1 responses and a lower ratio is associated with Th2 responses. The production of IgG2c in mice immunised with C18dMeBrar increased three-fold as compared to OVA alone, providing evidence that C18dMeBrar induces a Th1-biased immune response.

mMincle+FcRγ = molecular target: T1, mMincle+FcRγ (Mus musculus, UniProt Q9R0Q8); assay: 2B4-NFAT-GFP reporter cells expressing mMincle+FcRγ; type: cell-based, murine; conditions: ligand-coated plates 0.01, 0.1 or 1 nmol/well, 18 hours
T1 construct: expressed in transfected cells; host or cells: 2B4-NFAT-GFP reporter cells
T1 sequence (Q9R0Q8 1-214): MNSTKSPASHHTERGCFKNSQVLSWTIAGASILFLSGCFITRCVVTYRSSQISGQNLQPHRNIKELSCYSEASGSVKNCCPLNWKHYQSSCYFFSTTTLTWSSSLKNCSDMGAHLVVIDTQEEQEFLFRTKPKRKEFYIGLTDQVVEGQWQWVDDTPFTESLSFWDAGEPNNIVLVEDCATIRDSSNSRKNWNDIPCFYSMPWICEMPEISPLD
T1 sequence (P20491 19-86 partner): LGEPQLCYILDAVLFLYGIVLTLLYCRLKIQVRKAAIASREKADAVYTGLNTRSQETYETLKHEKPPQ
Procedure: (§1) Preparation of ligand-coated plates: Brartemicin analogues 9a-9i, TDM (Carbosynth, Sigma Aldrich), and TDB^14 were dissolved in CHCl3:MeOH (2:1, 1 mM), diluted in isopropanol ([…]) and added to 96-well plates (20 μL/well). The solvents were evaporated and the coated plates were used immediately.
2B4-NFAT-GFP reporter cells: 2B4-NFAT-GFP reporter cells expressing mMincle+FcRγ, hMincle+FcRγ, or FcRγ only have been previously described. […] The reporter cells were harvested, stained with propidium iodide, and analysed for NFAT-GFP expression using flow cytometry (FACS Calibur).
To determine whether the Mincle binding observed in Example 1 correlated with cellular activation, nuclear factor of activated T cells (NFAT)-green fluorescent protein (GFP) reporter cells expressing mMincle or hMincle coupled to FcRγ were stimulated using plates coated with TDM, TDB, brartemicin (9i), or analogues 9a-9h.
Activation of the reporter cells was measured through the production of GFP, which was monitored by flow cytometry (FIGS. 1b and 3c).
With the compounds 43a-h in hand, the ability of these analogues to bind and signal through Mincle was assessed (FIG. 5). Accordingly, NFAT-GFP reporter cells expressing mMincle+FcRγ, hMincle+FcRγ, or FcRγ-only were stimulated with the 2G-brartemicin analogues 43a-h, TDB, iPrOH, or the p-OC18H37 substituted analogue, 9f. Reporter cell activation was measured by the production of NFAT-GFP, which was analysed by flow cytometry.

hMincle-Ig = molecular target: T2, hMincle-Ig (Homo sapiens, UniProt Q9ULY5); assay: In vitro Mincle binding assay (ELISA) with hMincle-Ig fusion protein; conditions: plate-coated ligand 0.1 nmol/well
T2 construct: using soluble Mincle-Ig fusion-proteins; made in house
T2 sequence (Q9ULY5 41-219 limits assumed): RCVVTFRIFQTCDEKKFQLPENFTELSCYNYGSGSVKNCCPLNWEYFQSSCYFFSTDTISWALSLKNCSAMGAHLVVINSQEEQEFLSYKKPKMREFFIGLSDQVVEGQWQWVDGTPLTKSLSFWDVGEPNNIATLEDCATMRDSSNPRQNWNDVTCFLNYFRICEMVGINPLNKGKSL
Procedure: as §1
In vitro Mincle binding assay: The preparation of mMincle- and hMincle-Ig fusion proteins have been previously described. Plate-coated glycolipids 9a-i, TDB, and TDM were incubated with hMincle-Ig, mMincle-Ig, or hIgG1-Fc (Ig) [3 μg/mL in binding buffer (20 mM Tris-HCl, 150 mM NaCl, 1 mM CaCl2), 2 mM MgCl2, pH 7.0)]. Detection of bound protein was achieved via incubation with anti-hIgG-HRP followed by the addition of a colorimetric substrate and measurement of OD at 450 nm. Background was accounted for by subtracting the hIgG1-Fc OD450 values from fusion protein OD450 values
The synthesised brartemicin analogues prepared in Example 1 were first tested for their ability to bind to both human and murine Mincle in an enzyme-linked immunosorbent assay (ELISA) using soluble Mincle-Ig fusion-proteins (FIG. 1a).

[1] = s.c. OVA 200 μg + adjuvant 0.3 μmol

**Q.** With “6,6′-Di-O-(2-hydroxy-4-octabenzyloxybenzoyl)-α,α′-D-trehalose [9a]” as the substance, how does the “cell count compared to TDB” value (C57BL/6 mice; all concentrations of OVA re-stimulation) read?
**A.** The value was “significant increase in cell count”.

**Q.** What about the “number of splenocytes as compared to OVA alone” value (C57BL/6 mice; [1]) of the same substance?
**A.** Its value is “significantly larger number of splenocytes”.

**Q.** What about the “Th1 immune response / adjuvant activity in vivo” value (C57BL/6 mice; [1]) of the same substance?
**A.** The value was “potent adjuvant activity in vivo; also recorded: strong Th1 recall response; also recorded: polarised immune response with a distinct Th1 profile”.

**Q.** And the “Th1 immune response / adjuvant activity in vivo” value (C57BL/6 mice; s.c. OVA 200 μg + adjuvant 0.3 μmol, listed as C18dMeBrar)?
**A.** The value was “stronger Th1 immune response”.

**Q.** What about the footpad swelling (C57BL/6 mice; s.c. OVA 200 μg + adjuvant 0.3 μmol, OVA challenge 100 μg/footpad) of the same substance?
**A.** The footpad swelling was “neither 9a nor TDB induced any”.

**Q.** And the “IL-17 production by splenocytes restimulated with OVA” value (C57BL/6 mice; s.c. OVA 200 μg + adjuvant 0.3 μmol, restimulation 10, 30 or 100 μg/mL OVA)?
**A.** Its value is “neither 9a nor TDB induced any”.

**Q.** What about the “antigen specific IFN-γ production, re-stimulating with 100 μg/mL of antigen” value (C57BL/6 mice; s.c. OVA 200 μg + adjuvant 0.3 μmol, splenocytes restimulated with 100 μg/mL OVA) of the same substance?
**A.** Its value is “significantly enhanced cytokine production”.

**Q.** What about the “antigen specific IFN-γ production, all concentrations of OVA” value (C57BL/6 mice; s.c. OVA 200 μg + adjuvant 0.3 μmol, splenocytes restimulated with 10, 30 or 100 μg/mL OVA) of the same substance?
**A.** The value was “trend towards increased”.

**Q.** What about the IgG1 antibody production (C57BL/6 mice; serum, ELISA) of the same substance?
**A.** The IgG1 antibody production was “showed increases”.

**Q.** And the IgG2b antibody production (C57BL/6 mice; serum, ELISA)?
**A.** Its IgG2b antibody production is “showed increases”.

**Q.** And the IgG2c antibody production (C57BL/6 mice; serum, ELISA)?
**A.** Its IgG2c antibody production is “showed increases”.

**Q.** What about the “production of IgG2c as compared to OVA alone” value (C57BL/6 mice; serum, ELISA) of the same substance?
**A.** Its value is “three-fold”.

**Q.** What about the “production of OVA-specific IgG antibodies” value (C57BL/6 mice; serum, ELISA) of the same substance?
**A.** Its value is “elevated the production of IgG antibodies”.

**Q.** What about the “production of OVA-specific IgG antibodies” value (C57BL/6 mice; serum, ELISA, listed as C18dMeBrar) of the same substance?
**A.** The value was “only significant for C18dMeBrar”.

**Q.** What about the “activation of mMincle NFAT-GFP reporter cells (GFP by flow cytometry)” value (mMincle+FcRγ) of the same substance?
**A.** The value was “strongly activated”.

**Q.** And the “binding to hMincle-Ig (ELISA, OD at 450 nm)” value (hMincle-Ig)?
**A.** Its value is “good binding”.
